In a melting point compilation (Tetko et al.; mined from patent text by program, amines drawn as free bases though some values may be those of a salt):

SMILES | melting point [°C]
COC(=O)c1cc(SC#N)c(N)cc1OC | 184 to 185
COc1cc(C)c(CCCCCCCCCC(=O)CCCCCCCCCCCC(=O)O)c(O)c1OC | 63 to 64
COc1cc(F)ccc1-c1ccc(S(=O)(=O)N2c3ccccc3CC2C(=O)NCCOc2ccc(C(=O)O)cc2)cc1 (centres undefined) | 102
COc1ccccc1N1CCN(C(=O)Nc2cc(C(C)O)c(C)nc2OC)CC1 (centres undefined) | 88 to 90
O=C1OCCC1NC(c1ccccc1)(c1ccccc1)c1ccccc1 (centres undefined) | 164 to 166
CCCCNC(=O)N(C)c1ncc(-c2ccncc2)cn1 | 97 to 99
C=CCNc1nc(NCCCCC)c2scc(C)c2n1 | 64 to 65
CC(C)(C#N)c1ccc(C(=O)c2cccs2)cc1 | 139
CC(C)(C)OC1CCC(C(=O)O)CC1 (centres undefined) | 100 to 105
Nc1c(NCCCOc2cccc(CO)c2)c(=O)c1=O | 207 to 212
CCOC(=O)c1[nH]c(C)c(C)c1CC | 95 to 97
N#CCN1C(=O)COc2cc(F)c([N+](=O)[O-])cc21 | 196 to 200
CCCCSc1cc(N)c([N+](=O)[O-])cc1N | 129
Cc1ccc(NC(=O)c2cccc(N(C)C)c2)cc1NC(=O)c1ccc(N(C)CCCN(C)C)cc1 | 178 to 179
CC(=NO)C1=CCC2C3CCC4CC=CCC4(C)C3C(=O)CC12C (centres undefined) | 168 to 182
COC(=O)c1ccc(NC(=O)c2cc(C(C)C)c(C(C)C)s2)cc1F | 146 to 147
CC1=CC(=C=C2C(C#N)C(=C(C#N)C#N)OC2(C)C)C=C(C)N1c1ccccc1 (centres undefined) | 290
N#CCc1nnc2n1-c1sc(Cl)cc1C(c1ccccc1Cl)=NC2 | 217 to 220
CC(C)(Cn1cnc2c(N)nc3ccccc3c21)CC1(C)OCCO1 | 153 to 155
CCC(C)(C)NC(Nc1cc(C(F)(F)F)cc(C(F)(F)F)c1)=C(C#N)S(=O)(=O)c1ccc(Cl)cc1 | 205 to 207

Further lines, results first:

melting point [°C] | SMILES
253 | CCCOC(=O)c1ccc2c3cccc4cccc(c5ccc(C(=O)OCCC)c1c25)c43
121 to 122 | CCOc1ccc(N2CCN(c3c(C)c4c(c(OCC)c3C)OC(C)C4)CC2)cc1 (centres undefined)
155 to 156 | Cc1cccc(-n2ncc(C)c2-c2cc3cnccc3s2)n1
116 to 119 | CCCc1nc2ccccc2n1CC1=C(c2cccc(-c3nnn[nH]3)c2)CCC1
238 to 240 | CS(=O)(=O)Nc1cc2occc(=O)c2cc1Oc1ccccc1N
116 | COc1ccc(Cl)c(Oc2c(COCC(O)CO)nc(N3CCOCC3)nc2NS(=O)(=O)c2ccc(C(C)C)cn2)c1 (racemic)
81 to 92 | O=C(c1ncccc1OC1SCC(O)C(O)C1O)N1CCCCC1 (centres undefined)
197 | CC(C)c1ccc(S(=O)(=O)n2c(Cc3ccc(C(=O)O)c(F)c3)cc3cc(C(F)(F)F)ccc32)cc1
92 to 93 | CCOC(=O)CSc1nnc(-c2ccc3c(c2)CCO3)o1
112 to 115 | O=C(Nc1nccs1)C(CC1CCCC1)c1ccc(-c2ccc3[nH]ccc3c2)cc1 (centres undefined)
165 to 172 | O=C(O)C1CC2CCCCC2CN1C(S)c1nn[nH]n1 (centres undefined)
147 to 149 | O=C1c2cscc2Nc2ccccc2N1C1C=CCCC1 (centres undefined)
120 to 123 | CP(C)(=O)CN1CCC(Oc2c(F)c(F)c(F)c(F)c2F)CC1
171 to 172 | COc1ccc(-c2cnn3c(N)c(-c4cccc(Cl)c4)c(C)nc23)cc1
190 to 193 | COC(=O)c1c(Cc2ccc(C(=O)CO)cc2)c(=O)c2ccc(C)nc2n1-c1ccccc1
189 to 192 | CCCCN(CCCC)c1ccc(C=Cc2ccc(C(C#N)=C(C#N)C#N)s2)c(OC)c1
84 to 85.5 | c1ccc(-c2nc(-c3ccccc3)c(-c3ccccc3)s2)cc1
140 | CNC(=S)NS(=O)(=O)c1cc(CCNC(=O)/C=C/c2cccs2)ccc1OCCOC
76 to 79 | O=C(NCCCc1ccncc1)N1CCc2ccccc2C1
